Reference: patent publication US20220041591A1, “COMPOUNDS FOR TREATING DIABETES AND/OR RELATED CONDITIONS” (AUCKLAND UNISERVICES LIMITED, priority 2018, published 2022)

What was measured:
[1] = for soluble in water: pH 11; for solubility in words at acid pH: pH 1.8; for solubility in words at alkaline pH (1 M NaOH): pH 11.1
Excerpt: (§2) The compounds were titrated down to pH 8-9 with 1 M HCl and solubility determined immediately, and following overnight and longer term storage.
Light yellow solid. […] Add 1M NaOH.

[2] = Solubility and physical characteristics (1 M NaOH / 1 M HCl titration); conditions: for soluble during initial suspension and on titration and pH adjustment: Example 12, titrated down to pH 8-9 with 1 M HCl
Excerpt: as §2
Light yellow solid. […] Add 1M NaOH.

[3] = target: T1, human amylin (hA) (Homo sapiens, UniProt P10997); assay: Thioflavin-T assay, inhibition of amylin fibril formation; type: biochemical
T1 construct: Human amylin, also known as islet amylin amyloid polypeptide (IAPP), is a 37-residue peptide hormone
T1 sequence (P10997 34-70 limits assumed): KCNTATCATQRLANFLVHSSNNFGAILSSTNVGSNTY
Protocol: (§1) The ability of the compounds to inhibit human amylin (hA) fibril formation was assessed using the thioflavin-T assay, as described in J. F. Aitken et al., Suppression by polycyclic compounds of the conversion of human amylin into insoluble amylin amyloid., Biochem J., 374 (2003), 779-784. Inhibition was assessed at three hA:compound ratios (1:1, 1:0.1, 1:0.01) for each compound.
as §1, with “J” for “J.,”, “(2003)” for “(2003),”

## COc1ccnc(NC(=O)CC(=O)c2ccc(O)c(O)c2)c1 [Compound 9]
[1]
  soluble in water: 100%
[2]
  soluble during initial suspension and on titration and pH adjustment: 95%

## O=c1cc(-c2cccc(O)c2)nc2cccc(O)n12 [Compound 6]
[1]
  solubility in words at acid pH: Completely insoluble
  solubility in words at alkaline pH (1 M NaOH): Completely insoluble

## O=c1cc(-c2ccc(O)cc2)nc2cccc(O)n12 [Compound 5]
[1]; pH 7.4
  solubility at pH 7.4: lack of solubility
[1]; pH 10
  solubility below pH 10: not soluble
[1]; pH 10.4
  solubility in words after adding 1 M NaOH again, pH 10.4: completely soluble
[1]; pH 10.6
  soluble on addition of 1 M NaOH: approx. 70%
[1]; pH 11.3
  solubility in words after leaving 30 min in 1M NaOH: completely soluble
[2]; Example 14
  appearance after adding 1 M HCl, pH 8.9: slightly cloudy, some precipitation
[3]; Example 14, ratio not stated at the place
  inhibition of hA fibril formation: little inhibition

## COc1cccc(NC(=O)CC(=O)c2ccc(O)c(O)c2)n1 [Compound 1]
[1]
  soluble in water: 100%
[2]
  soluble during initial suspension and on titration and pH adjustment: 100%
[3]; Example 12, FIG. 1B, hA:compound ratio 1:0.1
  inhibition of hA fibril formation: Inhibition of hA fibril formation was observed

## COc1ccc(-c2cc(=O)n3c(O)cccc3n2)cc1OC [Compound 7]
[1]
  solubility in words at acid pH: Completely insoluble
  solubility in words at alkaline pH (1 M NaOH): Completely insoluble
